The text below walks through data of patent publication US20230295200A1 (REGENTS OF THE UNIVERSITY OF MICHIGAN, priority 2022, published 2023).

The structures appear in SMILES notation.

In one assay the target is T1, STAT5A (Homo sapiens, UniProt P42229).
T1 sequence (P42229 1-794): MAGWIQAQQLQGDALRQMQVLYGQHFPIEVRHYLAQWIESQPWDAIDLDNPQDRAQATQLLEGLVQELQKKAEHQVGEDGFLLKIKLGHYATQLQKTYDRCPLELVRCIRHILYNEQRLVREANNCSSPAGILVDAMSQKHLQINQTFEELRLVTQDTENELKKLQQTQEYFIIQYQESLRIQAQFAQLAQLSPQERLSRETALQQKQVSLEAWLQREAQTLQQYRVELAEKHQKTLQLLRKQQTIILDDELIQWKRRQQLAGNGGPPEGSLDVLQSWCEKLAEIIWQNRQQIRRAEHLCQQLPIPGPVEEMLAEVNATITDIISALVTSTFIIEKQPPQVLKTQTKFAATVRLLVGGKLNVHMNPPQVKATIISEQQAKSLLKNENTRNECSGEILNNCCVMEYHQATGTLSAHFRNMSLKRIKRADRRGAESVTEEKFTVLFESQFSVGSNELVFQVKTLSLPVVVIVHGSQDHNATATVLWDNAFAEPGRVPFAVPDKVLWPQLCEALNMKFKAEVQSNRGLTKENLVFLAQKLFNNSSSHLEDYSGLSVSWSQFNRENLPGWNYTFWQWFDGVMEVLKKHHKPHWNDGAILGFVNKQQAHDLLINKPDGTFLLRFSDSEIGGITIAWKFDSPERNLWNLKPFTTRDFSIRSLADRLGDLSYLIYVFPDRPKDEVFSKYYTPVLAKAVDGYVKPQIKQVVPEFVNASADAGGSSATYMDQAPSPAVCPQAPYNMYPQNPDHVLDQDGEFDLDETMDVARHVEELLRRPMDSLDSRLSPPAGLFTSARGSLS
Description: Fluorescence polarization (FP) binding assay, STAT5A. As to conditions: FP competition, 5 nM fluorescein-labeled tracer, 200 nM protein, PBS pH7.4. In short, it runs like this: (§1)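 5 nM fluorescein tracer + 200 nM STAT protein; PBS pH 7.4, 0.01% BGG, 0.01% Tween-20, 2 mM DTT; shake 15 min, 1 h RT equilibrium; FP read; nonlinear fit for inhibition constants.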

For the next assay, the target named is T2, STAT6 protein (Homo sapiens, UniProt P42226).
T2 sequence (P42226 1-847): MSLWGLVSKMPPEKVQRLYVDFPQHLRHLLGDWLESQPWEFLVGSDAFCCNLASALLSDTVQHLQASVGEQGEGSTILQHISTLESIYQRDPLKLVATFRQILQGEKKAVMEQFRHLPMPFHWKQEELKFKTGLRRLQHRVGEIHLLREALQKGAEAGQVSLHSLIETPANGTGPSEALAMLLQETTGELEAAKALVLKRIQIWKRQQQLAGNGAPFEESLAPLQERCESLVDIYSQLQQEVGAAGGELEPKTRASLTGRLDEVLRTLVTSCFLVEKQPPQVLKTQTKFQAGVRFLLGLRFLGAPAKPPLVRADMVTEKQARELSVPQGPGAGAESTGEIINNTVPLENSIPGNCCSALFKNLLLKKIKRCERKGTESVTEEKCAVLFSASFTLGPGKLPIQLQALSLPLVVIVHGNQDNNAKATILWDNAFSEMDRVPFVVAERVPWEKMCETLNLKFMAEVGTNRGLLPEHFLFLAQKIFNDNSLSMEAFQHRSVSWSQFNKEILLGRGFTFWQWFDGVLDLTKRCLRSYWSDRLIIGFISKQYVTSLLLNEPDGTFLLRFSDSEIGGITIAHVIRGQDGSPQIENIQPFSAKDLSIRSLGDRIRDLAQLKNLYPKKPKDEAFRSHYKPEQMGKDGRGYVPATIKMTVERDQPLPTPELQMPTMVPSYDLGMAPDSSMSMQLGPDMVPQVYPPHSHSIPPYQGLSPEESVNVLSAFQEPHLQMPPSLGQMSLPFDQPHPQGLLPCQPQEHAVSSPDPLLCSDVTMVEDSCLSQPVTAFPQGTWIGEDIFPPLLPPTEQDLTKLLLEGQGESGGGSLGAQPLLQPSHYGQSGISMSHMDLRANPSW
Description: Fluorescence polarization (FP) binding assay, STAT6. The note with it: FP competition, 5 nM fluorescein-labeled tracer, 200 nM protein, PBS pH7.4; read-out: Binding STAT6. Put shortly:
as §1
A general note: In fluorescence polarisation assays a small probe gives low polarisation when free and higher when bound to something large.

For the molecule `CCC[C@H](NC(=O)c1cc2cc(C(F)(F)P(=O)(O)O)ccc2s1)C(=O)N1CCC[C@H]1C(=O)N1CCO[C@@H](c2ccccc2)C1` [Compound 152, (difluoro(2-(((S)-1-oxo-1-((S)-2-((S)-2-phenylmorpholine-4-carbonyl)pyrrolidin-1-yl)pentan-2-yl)carbamoyl)benzo[b]thiophen-5-yl)methyl)phosphonic acid], the Ki on STAT5A was greater than 10 µM; on STAT6 protein it was 1 to 10 µM.

Take `C#CC[C@H](NC(=O)c1cc2cc(C(F)(F)P(=O)(O)O)ccc2s1)C(=O)N1CCC[C@H]1C(=O)N1CCO[C@@H](c2ccccc2)C1` [Compound 153, (difluoro(2-(((S)-1-oxo-1-((S)-2-((S)-2-phenylmorpholine-4-carbonyl)pyrrolidin-1-yl)pent-4-yn-2-yl)carbamoyl)benzo[b]thiophen-5-yl)methyl)phosphonic acid]: the Ki on STAT5A was greater than 10 µM; at STAT6 protein it was 1 to 10 µM.

With `O=C(N[C@H](C(=O)N1CCC[C@H]1C(=O)N1CCO[C@@H](c2ccccc2)C1)C1CC1)c1cc2cc(C(F)(F)P(=O)(O)O)ccc2s1` [Compound 154, ((2-(((S)-1-cyclopropyl-2-oxo-2-((S)-2-((S)-2-phenylmorpholine-4-carbonyl)pyrrolidin-1-yl)ethyl)carbamoyl)benzo[b]thiophen-5-yl)difluoromethyl)phosphonic acid], the Ki at STAT5A was greater than 10 µM; at STAT6 protein, 1 to 10 µM.

For `O=C(NC1(C(=O)N2CCC[C@H]2C(=O)N2CCO[C@@H](c3ccccc3)C2)CCC1)c1cc2cc(C(F)(F)P(=O)(O)O)ccc2s1` [Compound 155, (difluoro(2-((1-((S)-2-((S)-2-phenylmorpholine-4-carbonyl)pyrrolidine-1-carbonyl)cyclobutyl)carbamoyl)benzo [b]thiophen-5-yl)methyl)phosphonic acid], the Ki at STAT5A and at STAT6 protein was greater than 10 µM each time.

Turning to `CC(C)(O)[C@H](NC(=O)c1cc2cc(C(F)(F)P(=O)(O)O)ccc2s1)C(=O)N1CCC[C@H]1C(=O)N1CCO[C@@H](c2ccccc2)C1` [Compound 156, (difluoro(2-(((S)-3-hydroxy-3-methyl-1-oxo-1-((S)-2-((S)-2-phenylmorpholine-4-carbonyl)pyrrolidin-1-yl)butan-2-yl)carbamoyl)benzo[b]thiophen-5-yl)methyl)phosphonic acid], the values for the Ki at STAT5A and on STAT6 protein were greater than 10 µM and 1 to 10 µM, respectively.

Regarding `CC(=O)N1CC[C@H]2CC[C@@H](C(=O)N3CCC[C@@H](c4ccccc4)C3)N2C(=O)[C@@H](NC(=O)c2cc3cc(C(F)(F)P(=O)(O)O)ccc3s2)C1` [Compound 157, ((2-(((5S,8S,10aR)-3-acetyl-6-oxo-8-((S)-3-phenylpiperidine-1-carbonyl)decahydropyrrolo[1,2-a][1,5]diazocin-5-yl)carbamoyl)benzo[b]thiophen-5-yl)difluoromethyl)phosphonic acid], the Ki at STAT5A was greater than 10 µM; on STAT6 protein, 1 to 10 µM.

On to `CC(=O)N1CC[C@H]2CC[C@@H](C(=O)N3CCC[C@H](c4ccccc4)C3)N2C(=O)[C@@H](NC(=O)c2cc3cc(C(F)(F)P(=O)(O)O)ccc3s2)C1` [Compound 158, ((2-(((5S,8S,10aR)-3-acetyl-6-oxo-8-((R)-3-phenylpiperidine-1-carbonyl)decahydropyrrolo[1,2-a][1,5]diazocin-5-yl)carbamoyl)benzo[b]thiophen-5-yl)difluoromethyl)phosphonic acid], for which the figures for the Ki on STAT5A and on STAT6 protein were greater than 10 µM and 0.1 to 1 µM, respectively.

As to `CC(=O)N1CC[C@H]2CC[C@@H](C(=O)N3CCOC(C)(c4ccc(F)cc4)C3)N2C(=O)[C@@H](NC(=O)c2cc3cc(C(F)(F)P(=O)(O)O)ccc3s2)C1` (stereo partly drawn) [Compound 159, ((2-(((5S,8S,10aR)-3-acetyl-8-(2-(4-fluorophenyl)-2-methylmorpholine-4-carbonyl)-6-oxodecahydropyrrolo[1,2-a][1,5]diazocin-5-yl)carbamoyl)benzo[b]thiophen-5-yl)difluoromethyl)phosphonic acid], the Ki at STAT5A is greater than 10 µM; on STAT6 protein, 1 to 10 µM.

In the case of `CC(=O)N1CC[C@H]2CC[C@@H](C(=O)N3CCOC(C)(c4ccc(Cl)cc4)C3)N2C(=O)[C@@H](NC(=O)c2cc3cc(C(F)(F)P(=O)(O)O)ccc3s2)C1` (stereo partly drawn) [Compound 160, ((2-(((5S,8S,10aR)-3-acetyl-8-(2-(4-chlorophenyl)-2-methylmorpholine-4-carbonyl)-6-oxodecahydropyrrolo[1,2-a][1,5]diazocin-5-yl)carbamoyl)benzo[b]thiophen-5-yl)difluoromethyl)phosphonic acid], the figures for the Ki at STAT5A and on STAT6 protein were greater than 10 µM and 1 to 10 µM, respectively.

On to `CC(=O)N1CC[C@H]2CC[C@@H](C(=O)N3CCOC(c4ccc(F)cc4)C3)N2C(=O)[C@@H](NC(=O)c2cc3cc(C(F)(F)P(=O)(O)O)ccc3s2)C1` (stereo partly drawn) [Compound 161, ((2-(((5S,8S,10aR)-3-acetyl-8-(2-(4-fluorophenyl)morpholine-4-carbonyl)-6-oxodecahydropyrrolo[1,2-a][1,5]diazocin-5-yl)carbamoyl)benzo[b]thiophen-5-yl)difluoromethyl)phosphonic acid], for which the Ki on STAT5A is greater than 10 µM; on STAT6 protein it was 0.1 to 1 µM.

Take `CC(=O)N1CC[C@H]2CC[C@@H](C(=O)N3CCOC(c4cccc(Cl)c4)C3)N2C(=O)[C@@H](NC(=O)c2cc3cc(C(F)(F)P(=O)(O)O)ccc3s2)C1` (stereo partly drawn) [Compound 162, ((2-(((5S,8S,10aR)-3-acetyl-8-(2-(3-chlorophenyl)morpholine-4-carbonyl)-6-oxodecahydropyrrolo[1,2-a][1,5]diazocin-5-yl)carbamoyl)benzo[b]thiophen-5-yl)difluoromethyl)phosphonic acid]: the Ki at STAT5A is greater than 10 µM; at STAT6 protein, 0.1 to 1 µM.

As for `CC(=O)N1CC[C@H]2CC[C@@H](C(=O)N3CCOC(c4cc(F)c(Cl)cc4Cl)C3)N2C(=O)[C@@H](NC(=O)c2cc3cc(C(F)(F)P(=O)(O)O)ccc3s2)C1` (stereo partly drawn) [Compound 163, ((2-(((5S,8S,10aR)-3-acetyl-8-(2-(2,4-dichloro-5-fluorophenyl)morpholine-4-carbonyl)-6-oxodecahydropyrrolo[1,2-a][1,5]diazocin-5-yl)carbamoyl)benzo[b]thiophen-5-yl)difluoromethyl)phosphonic acid], the results for the Ki on STAT5A and on STAT6 protein were greater than 10 µM and 1 to 10 µM, respectively.

`CC(=O)N1CC[C@H]2CC[C@@H](C(=O)N3CCOC(c4ccccc4C)C3)N2C(=O)[C@@H](NC(=O)c2cc3cc(C(F)(F)P(=O)(O)O)ccc3s2)C1` (stereo partly drawn) [Compound 164, ((2-(((5S,8S,10aR)-3-acetyl-6-oxo-8-(2-(o-tolyl)morpholine-4-carbonyl)decahydropyrrolo[1,2-a][1,5]diazocin-5-yl)carbamoyl)benzo[b]thiophen-5-yl)difluoromethyl)phosphonic acid]: the figures for the Ki at STAT5A and on STAT6 protein were greater than 10 µM and 1 to 10 µM, respectively.

Consider `CC(=O)N1CC[C@H]2CC[C@@H](C(=O)Nc3ncc(-c4ccccc4)s3)N2C(=O)[C@@H](NC(=O)c2cc3cc(C(F)(F)P(=O)(O)O)ccc3s2)C1` [Compound 165, ((2-(((5S,8S,10aR)-3-acetyl-6-oxo-8-((5-phenylthiazol-2-yl)carbamoyl)decahydropyrrolo[1,2-a][1,5]diazocin-5-yl)carbamoyl)benzo[b]thiophen-5-yl)difluoromethyl)phosphonic acid], for which the Ki on STAT5A and on STAT6 protein was 1 to 10 µM throughout.
